Target: MMP-13 (Homo sapiens, UniProt P45452)
Assay: EnzoLyte 520 Generic MMP Assay Kit, 5-FAM/QXL520 FRET peptide substrate
Format: biochemical
Description: The EnzoLyte™ 520 Generic MMP Assay Kit (AnaSpec Inc.) can detect the activity of several MMPs including MMP-1, 2, 3, 7, 8, 9, 13, and 14. This kit uses a 5-FAM/QXL™520 fluorescence resonance energy transfer (FRET) peptide as an MMP substrate.

SMILES | IC50 [nM]
Cc1cccc(C(=O)Nc2ccc(-c3ccc(C(=O)N[C@H](C(=O)NC[C@H](C)O)C4CCCCC4)o3)cc2)n1 [N-[4-(5-{[(1S)-1-cyclohexyl-2-{[(2S)-2-hydroxypropyl]amino}-2-oxoethyl]carbamoyl}furan-2-yl)phenyl]-6-methylpyridine-2-carboxamide] | 23
CNC(=O)[C@@H](NC(=O)c1ccc(-c2ccc(OCc3cn(C)cn3)cn2)o1)C1CCNCC1 [N-[(1S)-2-(methylamino)-2-oxo-1-(piperidin-4-yl)ethyl]-5-{5-[(1-methyl-1H-imidazol-4-yl)methoxy]pyridin-2-yl}furan-2-carboxamide] | 163
CNC(=O)[C@@H](NC(=O)c1ccc(-c2cccc(CNC(=O)c3cccc(C#N)c3)c2)o1)C(C)C [5-{3-[(3-Cyano-benzoylamino)-methyl]-phenyl}-furan-2-carboxylic acid ((S)-2-methyl-1-methylcarbamoyl-propyl)-amide] | 160
COC[C@H](C)NC(=O)[C@@H](NC(=O)c1ccc(-c2ccc(NC(=O)c3cccc(C)n3)cc2)o1)C1CCCCC1 [N-[4-(5-{[(1S)-1-cyclohexyl-2-{[(2S)-1-methoxypropan-2-yl]amino}-2-oxoethyl]carbamoyl}furan-2-yl)phenyl]-6-methylpyridine-2-carboxamide] | 32
CNC(=O)[C@@H](NC(=O)c1ccc(-c2ccc(NC(=O)c3cccc(C)n3)cc2)o1)C1CC1 [N-[4-(5-{[(1S)-1-cyclopropyl-2-(methylamino)-2-oxoethyl]carbamoyl}furan-2-yl)phenyl]-6-methylpyridine-2-carboxamide] | 69
CNC(=O)[C@@H](NC(=O)c1ccc(-c2cccc(CNC(=O)c3ccn(C(F)F)n3)c2)o1)C(C)C [1-Difluoromethyl-1H-pyrazole-3-carboxylic acid 3-[5-((S)-2-methyl-1-methylcarbamoyl-propylcarbamoyl)-furan-2-yl]-benzylamide] | 14
CCOc1ccc(-c2ccc(-c3ccc(C(=O)N[C@H](C(=O)NC)C(C)C)o3)nc2)cc1 [5-[5-(4-Ethoxy-phenyl)-pyridin-2-yl]-furan-2-carboxylic acid ((S)-2-methyl-1-methylcarbamoyl-propyl)-amide] | 47
CNC(=O)[C@@H](NC(=O)c1ccc(-c2ccc(NC(=O)c3cccc(C)n3)cc2)o1)C(C)C [6-Methyl-N-[4-(5-{[(2S)-3-methyl-1-(methylamino)-1-oxobutan-2-yl]carbamoyl}furan-2-yl)phenyl]pyridine-2-carboxamide] | 14
CNC(=O)[C@@H](NC(=O)c1ccc(-c2cccc(CNC(=O)c3ccc(OC)cc3)c2)o1)C(C)C [5-{3-[(4-Methoxy-benzoylamino)-methyl]-phenyl}-furan-2-carboxylic acid ((S)-2-methyl-1-methylcarbamoyl-propyl)-amide] | 155
CNC(=O)[C@@H](NC(=O)c1ccc(-c2ccc(NC(=O)c3cc4ccccc4o3)cn2)o1)C1CCCCC1 [N-[6-(5-{[(1S)-1-cyclohexyl-2-(methylamino)-2-oxoethyl]carbamoyl}furan-2-yl)pyridin-3-yl]-1-benzofuran-2-carboxamide] | 30
CNC(=O)[C@@H](NC(=O)c1ccc(-c2ccc(OCc3ccn[nH]3)cn2)o1)C1CCCCC1 [N-[(1S)-1-cyclohexyl-2-(methylamino)-2-oxoethyl]-5-[5-(1H-pyrazol-5-ylmethoxy)pyridin-2-yl]furan-2-carboxamide] | 6
CNC(=O)[C@@H](NC(=O)c1ccc(-c2cccc(CNC(=O)C3CCCN(C)C3)c2)o1)C(C)C (stereo partly drawn) [1-Methyl-N-[3-(5-{[(1S)-2-methyl-1-(methylcarbamoyl)propyl]carbamoyl}-2-furyl)benzyl]piperidine-3-carboxamide] | 215
CNC(=O)[C@@H](NC(=O)c1ccc(-c2ccc(C)cc2)o1)C1CCCCC1 [N-[(1S)-1-cyclohexyl-2-(methylamino)-2-oxoethyl]-5-(4-methylphenyl)furan-2-carboxamide] | 290
CNC(=O)[C@@H](NC(=O)c1ccc(-c2ccc(OCc3cc(C)n(C)n3)cn2)o1)C(C)C [5-[5-(1,5-Dimethyl-1H-pyrazol-3-ylmethoxy)-pyridin-2-yl]-furan-2-carboxylic acid ((S)-2-methyl-1-methylcarbamoyl-propyl)-amide] | 80
CC(O)CNC(=O)[C@@H](NC(=O)c1ccc(-c2ccc(C#N)cc2)o1)C1CCCCC1 (stereo partly drawn) [5-(4-cyanophenyl)-N-{(1S)-1-cyclohexyl-2-[(2-hydroxypropyl)amino]-2-oxoethyl}furan-2-carboxamide] | 170
CNC(=O)[C@@H](NC(=O)c1ccc(-c2cccc(CNC(=O)c3cccc(C(F)(F)F)c3)c2)o1)C(C)C [5-{3-[(3-Trifluoromethyl-benzoylamino)-methyl]-phenyl}-furan-2-carboxylic acid ((S)-2-methyl-1-methylcarbamoyl-propyl)-amide] | 49
N#Cc1ccc(-c2ccc(C(=O)N[C@H](C(=O)NCCO)C3CCCCC3)o2)cc1 [5-(4-cyanophenyl)-N-{(1S)-1-cyclohexyl-2-[(2-hydroxyethyl)amino]-2-oxoethyl}furan-2-carboxamide] | 100
CNC(=O)[C@@H](NC(=O)c1ccc(-c2ccc(NC(=O)c3cncc(C)c3)cc2)o1)C1CCCCC1 [N-[4-(5-{[(1S)-1-cyclohexyl-2-(methylamino)-2-oxoethyl]carbamoyl}furan-2-yl)phenyl]-5-methylpyridine-3-carboxamide] | 150
CNC(=O)[C@@H](NC(=O)c1ccc(-c2cccc(CNC(=O)C3CCCN3)c2)o1)C(C)C (stereo partly drawn) [N-[3-(5-{[(1S)-2-methyl-1-(methylcarbamoy)propyl]carbamoyl}-2-furyl)benzyl]prolinamide] | 305
COCCNC(=O)[C@@H](NC(=O)c1ccc(-c2ccc(C#N)cc2)o1)C1CCCCC1 [5-(4-cyanophenyl)-N-{(1S)-1-cyclohexyl-2-[(2-methoxyethyl)amino]-2-oxoethyl}furan-2-carboxamide] | 74
CNC(=O)[C@@H](NC(=O)c1ccc(-c2cccc(CNC(=O)c3cncc(C)c3)c2)o1)C1CCCCC1 [N-[3-(5-{[(1S)-1-cyclohexyl-2-(methylamino)-2-oxoethyl]carbamoyl}furan-2-yl)benzyl]-5-methylpyridine-3-carboxamide] | 30
CNC(=O)[C@@H](NC(=O)c1ccc(-c2cccc(CNC(=O)c3cccc(C)c3)c2)o1)C(C)C [5-{3-[(3-Methyl-benzoylamino)-methyl]-phenyl}-furan-2-carboxylic acid ((S)-2-methyl-1-methylcarbamoyl-propyl)-amide] | 132
CNC(=O)[C@@H](NC(=O)c1ccc(-c2cccc(CNC(=O)c3ccnnc3)c2)o1)C(C)C [N-[3-(5-{[(1S)-2-methyl-1-(methylcarbamoyl)propyl]carbamoyl}-2-furyl)benzyl]pyridazine-4-carboxamide] | 180
CNC(=O)[C@@H](NC(=O)c1ccc(-c2ccc(-c3cccnc3)cn2)o1)C(C)C [5-[3,3′]Bipyridinyl-6-yl-furan-2-carboxylic acid ((S)-2-methyl-1-methylcarbamoyl-propyl)-amide] | 140
CNC(=O)[C@@H](NC(=O)c1ccc(-c2cccc(CNC(=O)c3cc(C(F)(F)F)n[nH]3)c2)o1)C(C)C [5-Trifluoromethyl-2H-pyrazole-3-carboxylic acid 3-[5-((S)-2-methyl-1-methylcarbamoyl-propylcarbamoyl)-furan-2-yl]-benzylamide] | 160

Source: US8637550B2, “Heteroaryl diamide compounds useful as MMP-13 inhibitors” (Boehringer Ingelheim International GmbH, priority 2008, dated 2014)
